One compound from ChEMBL document CHEMBL1156612, “The chemical and hydroxyl radical scavenging activity changes of ginsenoside-Rb1 by heat processing” (Bioorg Med Chem Lett, 2008) can be followed below.

Holding throughout (assay type): functional
Common to all, as to design: scale not given: the % may be the effect or the level left

Assay [1] in a line: Antioxidant activity assessed as inhibition of hydroxyl radical production at 0.5% concentration%.
A short description of assay [2]: Antioxidant activity assessed as inhibition of hydroxyl radical production at 0.05% concentration%.
A short description of assay [3]: Antioxidant activity assessed as inhibition of hydroxyl radical production after heat processing.

`CC(C)=CCC[C@](C)(O[C@@H]1O[C@H](CO[C@@H]2O[C@H](CO)[C@@H](O)[C@H](O)[C@H]2O)[C@@H](O)[C@H](O)[C@H]1O)[C@H]1CC[C@]2(C)[C@@H]1[C@H](O)C[C@@H]1[C@@]3(C)CC[C@H](O[C@@H]4O[C@H](CO)[C@@H](O)[C@H](O)[C@H]4O[C@@H]4O[C@H](CO)[C@@H](O)[C@H](O)[C@H]4O)C(C)(C)[C@@H]3CC[C@]12C`: the Activity in assay [1] was 24%; in assay [2], 47%; in assay [3] it was 42%.
